Experimental data reported in patent publication US4325970A, “15-Acetyl-prostaglandins” (Hoffmann-La Roche Inc., priority 1980, dated 1982).
Where two headings read alike, the source gives them in different places.

What was measured:
[1] = tested on: gastric secretion stimulated by histamine; experiment: Heidenhain pouch dog test, histamine-stimulated gastric secretion; format: in vivo, dog (mongrel)
Procedure: Compound A was next tested at a dose level which would cause a definite and reproducible pharmacological effect.
The Heindenhain pouch test involved collecting gastric juice from the denervated (Heidenhain) gastric pouches of mongrel dogs. This collection was accomplished by gravity drainage, using a specially manufactured titanium cannula. Gastric secretion was stimulated by intravenous infusion of a saline solution of histamine hydrochloride, 20 μg/kg/hr, injected at a rate of 1 ml/min. This submaximal stimulation elicited acid secretion approximately 30% of maximal, without the tachycardia commonly observed with higher doses of histamine. Samples of gastric juice were collected at 15-min intervals. Compound A was administered orally via a 1/4 oz. hard gelatin capsule. The animals were dosed 90 min after the start of histamine infusion and the test continued for 9 hours post-drug administration. The dogs were concious and stood quietly in Pavlov slings during the experiments. Sample volume was measured, and pH, acid concentration (mEq/L), acid output (mEq/15-min periods), as well as pepsin concentration and output were determined. Vital signs were monitored throughout the test and kennel observations continued for 24 hr.
The indexes chosen to assess drug efficacy were acid concentration and acid output. These parameters were expressed as a percentage of the average of the three 15-min values prior to dosage. […] […] Values of pH increased from a control average of 1.0 to a maximum of 2.0 six hours post drug. Analysis of control data for this group of Heindenhain-pouch dogs indicated no significant decrease in gastric juice volumes from control levels during these extended studies. In these control animals, pH values averaged 0.9 throughout the entire experiment. Therefore, no significant decreases in acid concentration or output would be expected in the control results.

gastric secretion = experiment: gastric secretory depressant test in the unanesthetized rat with acute gastric fistula (acid concentration, acid output, pH); format: in vivo; conditions: for % Inhibition, acid concentration (S.E.M.) / % Inhibition, acid output (S.E.M.): 10 μg/kg b.w. I.G.
Procedure: were tested as gastric secretory depressants in the unanesthesized rat with acute gastric fistula by the following procedure:
During this baseline period, the pH of the secretory flow was about 1.5 for each animal. Individual samples were collected at 10-minute intervals during this baseline period to monitor the pH. The compounds dissolved in polyethylene glycol-400 were administered intragastrically (I.G.) after this baseline period and samples were continuously collected for up to 180 minutes. The samples of gastric contents were subsequently assayed for volume, total acid concentration (μEq/ml) and total acid output for 10 minutes (μEq/10 minutes).
In addition to intragastric (I.G.) dosages, the activity of these compounds was tested for intraduodenal (I.D.) and intravenous administration (I.V.) to unanesthetized rats with acute gastric fistula as described above. For I.D. administration, the compounds were dissolved in polyethylene glycol-400. On the other hand, a trimethylolnitro-methane/ethanol solution was used for I.V. dosing. […] With this dose and route of administration of Compound A, a pronounced effect on pH was seen, an average increase of 3.1 pH units over 3 hours post administration. With the I.G. dose of Compound A of 5 μg/Kg b.w., an average increase of 1.6 pH units occurred. […] The antisecretory effect of Compound A seen after I.V. administration (10 μg/Kg b.w.) was low, amounting to about 1/4 to 1/5 that seen following I.G. dosage of Compound A. With the I.V. route of administration at this dose of Compound A (10 μg/Kg b.w.) effect on pH was minimal, 1/10 to 1/20 that seen after I.G. administration of an identical dose of Compound A.

[2] = tested on: gastric microbleeding induced by aspirin; format: in vivo, rat; conditions: for blood lost after Compound A in combination with aspirin: intragastric, one hour
Description: To study the effects of Compound A on gastric microbleeding induced by aspirin, a technique was developed based on that used by Menasse-Gdynia and Krupp, Toxicol, Appl. Pharmacol. 29, 389-396. The technique involves the microsurgical preparation of rats so as to isolate the stomach in an accessible, perfused system and the utilization of chromium-51-labelled red blood cells (^51 Cr-RBC) as a convenient handle for the assessment of bleeding from drug-induced gastric microlesions.
Rats were microsurgically implanted with a cannula in the vena cava (for the injection of ^51 Cr-RBC), a cannula in the forestomach (for constant infusion of tap water) and a cannula in the duodenum at the pyloric sphincter (for collection ot total gastric effluent). After a 30 min wash with tap water infused at 5.5 m/hr, each animal was administered either aspirin (100 mg/kg) or aspirin in combination with Compound A. Ease dose was administered intragastrically in 1 ml 40% polyethylene glycol (having molecular weight of 400) vehicle and allowed to remain in the stomach for 15 min. Simultaneously 0.9 ml ^51 Cr-RBC (3×10^6) was administered through the vena cava. Gastric effluent was collected every 5 min for a total of […]. Radioactivity was determined in a gamma counter. The results are expressed as microliters of whole blood lost during the 60 min experiments, based on the following formula: [formula]

acid secretion = acid secretion in three conscious dog models (Heidenhain pouches, Pavlov pouches or gastric fistulae); format: in vivo
Description: These models consisted of concious dogs prepared with Heidenhain pouches, Pavlov pouches or gastric fistulae.

[3] = 20 minutes after administration
[4] = 30 minutes after administration
[5] = 40 minutes after administration
[6] = 50 minutes after administration
[7] = 60 minutes after administration
[8] = 70 minutes after administration
[9] = 80 minutes after administration
[10] = 90 minutes after administration
[11] = 100 minutes after administration
[12] = 110 minutes after administration
[13] = 120 minutes after administration
[14] = 130 minutes after administration
[15] = 140 minutes after administration
[16] = 150 minutes after administration
[17] = 160 minutes after administration
[18] = 170 minutes after administration
[19] = 180 minutes after administration
[20] = Compound A 10 μg/kg + aspirin 100 mg/kg

SMILES: CCCCC(C)(C)[C@@H](/C=C/C1[C@H](C)CC(=O)[C@@H]1C/C=C\CCCC(=O)O)OC(C)=O (stereo in doubt) [Compound A, (8R,11R,12S,15R,5Z,13E)-15-acetyloxy-11,16,16-trimethyl-9-oxoprosta-5,13-dien-1-oic acid]
- activity ([1]; 100 μg/kg p.o.): potential for significant activity
- dogs with 50% or better acid reduction for more than two hours ([1]; 100 μg/kg p.o., six dogs): Three of the six dogs
- acid reduction ([1]; 100 μg/kg p.o., in three of the six dogs, for more than two hours post dosage): ≥ 50%
- duration of 50% or better acid reduction ([1]; 100 μg/kg p.o., three of the six dogs): more than two hours
- activity compared with 500 μg/kg level ([1]; 250 μg/kg oral): almost as good as that found at the 500 μ/kg level
- antisecretory activity ([1]; 500 μg/kg oral): marked antisecretory activity of long duration
- duration of >60% inhibition of acid output ([1]; 500 μg/kg oral): > 9 h
- start of >60% inhibition of acid output after administration ([1]; 500 μg/kg oral): 45 min
- inhibition of acid output ([1]; 500 μg/kg oral, beginning 45 minutes after administration, longer than 9 hours, mean=0.38 mEq/15 minutes): > 60%
- reduction of the acid concentration from control values ([1]; 500 μg/kg oral, constant between 4 and 5 3/4 hours post drug, control mean=136 mg/L as printed): ≥ 50%
- maximum pH of gastric juice ([1]; 500 μg/kg oral, six hours post drug, from a control average of 1.0): 2.0
- duration of action (gastric secretion; 5 μg/Kg I.G.): 110 min
- response in pH relative to that seen with the 10 μg/Kg b.w. dose of Compound A (gastric secretion; 5 μg/Kg I.G. vs 10 μg/Kg I.G.): about 50%
- average increase of pH (gastric secretion; 5 μg/Kg b.w. I.G.): 1.6 pH units
- effect on pH compared with 10 μg/Kg I.G. of Compound B (gastric secretion; 5 μg/Kg b.w. I.G.): essentially equivalent to that of the 10 μg/Kg I.G. of Compound B
- duration of action (gastric secretion; 10 μg/Kg I.G.): 180 min
- effect on acid concentration and output compared with I.G. dosage (gastric secretion; 10 μg/Kg b.w. I.D.): no different to the I.G. dosage of Compound A
- effect on pH compared with I.G. route (gastric secretion; 10 μg/Kg b.w. I.D.): much lower than by the I.G. route
- average increase of pH (gastric secretion; 10 μg/Kg b.w. I.G. (printed 10 g/Kg), over 3 hours post administration): 3.1 pH units
- antisecretory effect (gastric secretion; 10 μg/Kg b.w. I.V.): low
- effect on pH (gastric secretion; 10 μg/Kg b.w. I.V.): minimal
- % Inhibition, acid concentration (S.E.M.) (gastric secretion; [3]): 34 (16) %
- % Inhibition, acid output (S.E.M.) (gastric secretion; [3]): 39 (14) %
- % Inhibition, acid concentration (S.E.M.) (gastric secretion; [4]): 91 (9) %
- % Inhibition, acid output (S.E.M.) (gastric secretion; [4]): 91 (9) %
- % Inhibition, acid concentration (S.E.M.) (gastric secretion; [5]): 70 (14) %
- % Inhibition, acid output (S.E.M.) (gastric secretion; [5]): 69 (17) %
- % Inhibition, acid concentration (S.E.M.) (gastric secretion; [6]): 50 (17) %
- % Inhibition, acid output (S.E.M.) (gastric secretion; [6]): 43 (20) %
- % Inhibition, acid concentration (S.E.M.) (gastric secretion; [7]): 67 (21) %
- % Inhibition, acid output (S.E.M.) (gastric secretion; [7]): 73 (17) %
- % Inhibition, acid concentration (S.E.M.) (gastric secretion; [8]): 67 (21) %
- % Inhibition, acid output (S.E.M.) (gastric secretion; [8]): 74 (17) %
- % Inhibition, acid concentration (S.E.M.) (gastric secretion; [9]): 67 (21) %
- % Inhibition, acid output (S.E.M.) (gastric secretion; [9]): 79 (16) %
- % Inhibition, acid concentration (S.E.M.) (gastric secretion; [10]): 80 (20) %
- % Inhibition, acid output (S.E.M.) (gastric secretion; [10]): 80 (20) %
- % Inhibition, acid concentration (S.E.M.) (gastric secretion; [11]): 67 (20) %
- % Inhibition, acid output (S.E.M.) (gastric secretion; [11]): 60 (25) %
- % Inhibition, acid concentration (S.E.M.) (gastric secretion; [12]): 60 (24) %
- % Inhibition, acid output (S.E.M.) (gastric secretion; [12]): 68 (20) %
- % Inhibition, acid concentration (S.E.M.) (gastric secretion; [13]): 67 (20) %
- % Inhibition, acid output (S.E.M.) (gastric secretion; [13]): 72 (20) %
- % Inhibition, acid concentration (S.E.M.) (gastric secretion; [14]): 80 (19) %
- % Inhibition, acid output (S.E.M.) (gastric secretion; [14]): 80 (20) %
- % Inhibition, acid concentration (S.E.M.) (gastric secretion; [15]): 100 (0) %
- % Inhibition, acid output (S.E.M.) (gastric secretion; [15]): 100 (0) %
- % Inhibition, acid concentration (S.E.M.) (gastric secretion; [16]): 72 (17) %
- % Inhibition, acid output (S.E.M.) (gastric secretion; [16]): 92 (5) %
- % Inhibition, acid concentration (S.E.M.) (gastric secretion; [17]): 80 (16) %
- % Inhibition, acid output (S.E.M.) (gastric secretion; [17]): 82 (18) %
- % Inhibition, acid concentration (S.E.M.) (gastric secretion; [18]): 80 (15) %
- % Inhibition, acid output (S.E.M.) (gastric secretion; [18]): 80 (20) %
- % Inhibition, acid concentration (S.E.M.) (gastric secretion; [19]): 67 (33) %
- % Inhibition, acid output (S.E.M.) (gastric secretion; [19]): 71 (29) %
- antisecretory effects (gastric secretion; I.G. dose 10 g/Kg [sic] b.w.): pronounced antisecretory effects
- duration of antisecretory effect (gastric secretion; I.G. dose 10 g/Kg [sic] b.w.): at least 3 hours
- duration of antisecretory effect compared with Compound B (gastric secretion; I.G. dose 10 g/Kg [sic] b.w.): significantly longer than that seen with Compound B
- blood lost after Compound A in combination with aspirin ([2]; Compound A 1.25 μg/kg + aspirin 100 mg/kg): 178 µL
- blood lost after Compound A in combination with aspirin ([2]; Compound A 2.5 μg/kg + aspirin 100 mg/kg): 56 µL
- prevention of aspirin-induced microbleeding [2, 20]: complete prevention
- blood lost after Compound A in combination with aspirin [2, 20]: 0 µL
- effect on aspirin-induced bleeding ([2]; Compound A 1.25, 2.5 or 10 μg/kg + aspirin 100 mg/kg): reduced or prevented bleeding in a dose-dependent manner
- inhibition of acid secretion (acid secretion; 50 to 100 μg/kg I.V.): at best, intermittent, slight to moderate inhibition of acid secretion of short duration
- inhibition of acid secretion (acid secretion; oral and intrapouch dose of 10 to 50 μg/kg): at best, intermittent, slight to moderate inhibition of acid secretion of short duration

SMILES: CCCCC(C)(C)[C@H](O)/C=C/C1[C@H](C)CC(=O)[C@@H]1C/C=C\CCCC(=O)O (stereo in doubt) [Compound B, (8R,11R,12S,15R,5Z,13E)-15-hydroxy-11,16,16-trimethyl-9-oxoprosta-5,13-dien-1-oic acid, reference compound]
- % Inhibition, acid concentration (S.E.M.) (gastric secretion; [3]): 62 (5) %
- % Inhibition, acid output (S.E.M.) (gastric secretion; [3]): 69 (3) %
- % Inhibition, acid concentration (S.E.M.) (gastric secretion; [4]): 67 (6) %
- % Inhibition, acid output (S.E.M.) (gastric secretion; [4]): 72 (2) %
- % Inhibition, acid concentration (S.E.M.) (gastric secretion; [5]): 58 (6) %
- % Inhibition, acid output (S.E.M.) (gastric secretion; [5]): 68 (6) %
- % Inhibition, acid concentration (S.E.M.) (gastric secretion; [6]): 59 (5) %
- % Inhibition, acid output (S.E.M.) (gastric secretion; [6]): 73 (2) %
- % Inhibition, acid concentration (S.E.M.) (gastric secretion; [7]): 43 (5) %
- % Inhibition, acid output (S.E.M.) (gastric secretion; [7]): 78 (7) %
- % Inhibition, acid concentration (S.E.M.) (gastric secretion; [8]): 45 (5) %
- % Inhibition, acid output (S.E.M.) (gastric secretion; [8]): 71 (3) %
- % Inhibition, acid concentration (S.E.M.) (gastric secretion; [9]): 44 (6) %
- % Inhibition, acid output (S.E.M.) (gastric secretion; [9]): 77 (7) %
- % Inhibition, acid concentration (S.E.M.) (gastric secretion; [10]): 25 (13) %
- % Inhibition, acid output (S.E.M.) (gastric secretion; [10]): 57 (17) %
